# Measurements published in PubChem BioAssay AID330 (DTP/NCI, 2004).
# Values joined by “and” are separate entries in the source; they are usually repeats but may differ in a detail not shown here. Equal entries are not always repeated. Inconclusive results and toxic doses are left out.
# System: P388 leukemia ip, CD2F1 mice, survival T/C
# Experiment: NCI In Vivo Anticancer Drug Screen. Data for tumor model P388 Leukemia (intraperitoneal) in CD2F1 (CDF1) mice
# Conditions: endpoint: median survival time, higher = longer survival
# Outline: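 Mice carrying the transplanted tumor received test compound or vehicle. Survival was recorded in each group, and the value is the treated-group measurement divided by that of the vehicle-treated control group.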
# [1] = dose: 50.0 mg/kg/injection, schedule: Q01DX005 (ip), vehicle: Klucel (hydroxypropylcellulose) (HPC)
# [2] = dose: 100.0 mg/kg/injection, schedule: Q01DX005 (ip), vehicle: Klucel (hydroxypropylcellulose) (HPC)
# [3] = dose: 200.0 mg/kg/injection, schedule: Q01DX005 (ip), vehicle: Klucel (hydroxypropylcellulose) (HPC)
# [4] = dose: 50.0 mg/kg/injection, schedule: Q01DX009 (ip), vehicle: saline
# [5] = dose: 100.0 mg/kg/injection, schedule: Q01DX009 (ip), vehicle: saline
# [6] = dose: 200.0 mg/kg/injection, schedule: Q01DX009 (ip), vehicle: saline
# [7] = dose: 50.0 mg/kg/injection, schedule: Q01DX005 (ip), vehicle: saline with Tween-80
# [8] = dose: 100.0 mg/kg/injection, schedule: Q01DX005 (ip), vehicle: saline with Tween-80
# [9] = dose: 200.0 mg/kg/injection, schedule: Q01DX005 (ip), vehicle: saline with Tween-80
# [10] = dose: 200.0 mg/kg/injection, schedule: Q04DX003 (ip), vehicle: saline with Tween-80
# [11] = dose: 400.0 mg/kg/injection, schedule: Q04DX003 (ip), vehicle: saline with Tween-80
# [12] = dose: 60.0 mg/kg/injection, schedule: Q01DX005 (ip), vehicle: saline with Tween-80
# [13] = dose: 120.0 mg/kg/injection, schedule: Q01DX005 (ip), vehicle: saline with Tween-80
# [14] = dose: 240.0 mg/kg/injection, schedule: Q01DX005 (ip), vehicle: saline with Tween-80
smiles,measurement,setting,value
c1ccc(C(c2ccccc2)(c2cccs2)N2CCCCC2)cc1,T/C,"dose: 100.0 mg/kg/injection, schedule: Q01DX001 (ip), vehicle: Klucel (hydroxypropylcellulose) (HPC)",99 % of control
same,T/C,"dose: 200.0 mg/kg/injection, schedule: Q01DX001 (ip), vehicle: Klucel (hydroxypropylcellulose) (HPC)",94 % of control
same,T/C,"dose: 400.0 mg/kg/injection, schedule: Q01DX001 (ip), vehicle: Klucel (hydroxypropylcellulose) (HPC)",96 % of control
[N-]=[N+]=NC1(N=[N+]=[N-])C(=O)Nc2ccccc2C1=O (configuration not stated),T/C,[1],93 % of control
same,T/C,[2],103 % of control
same,T/C,[3],107 % of control
N#CC(=O)Nc1ccc(Cl)c(Cl)c1,T/C,"dose: 7.5 mg/kg/injection, schedule: Q01DX005 (ip), vehicle: Klucel (hydroxypropylcellulose) (HPC)",104 % of control
same,T/C,"dose: 15.0 mg/kg/injection, schedule: Q01DX005 (ip), vehicle: Klucel (hydroxypropylcellulose) (HPC)",99 % of control
same,T/C,"dose: 30.0 mg/kg/injection, schedule: Q01DX005 (ip), vehicle: Klucel (hydroxypropylcellulose) (HPC)",100 % of control
COc1cc2c(cc1C(C)c1cc(OC)c(OC)c(OC)c1)OCO2 (configuration not stated),T/C,[1],99 % of control
same,T/C,[2],97 % of control
same,T/C,[3],91 % of control
COC(=O)C(N)Cc1ccc(O)c(O)c1 (configuration not stated),T/C,[4],101 % of control
same,T/C,"dose: 50.0 mg/kg/injection, schedule: Q08HX028 (ip), vehicle: water",99 % of control
same,T/C,[5],108 % of control and 115 % of control
same,T/C,"dose: 100.0 mg/kg/injection, schedule: Q08HX028 (ip), vehicle: water",102 % of control
same,T/C,[6],111 % of control and 121 % of control
same,T/C,"dose: 200.0 mg/kg/injection, schedule: Q08HX028 (ip), vehicle: water",120 % of control
same,T/C,"dose: 800.0 mg/kg/injection, schedule: Q01DX009 (ip), vehicle: saline",156 % of control
COCN(C)N=Nc1ccc(Br)cc1,T/C,[7],95 % of control
same,T/C,[8],103 % of control
same,T/C,[9],102 % of control
Cc1nc2c(ncn2C2OC(CO)C(O)C2O)c(=O)[nH]1 (configuration not stated),T/C,"dose: 50.0 mg/kg/injection, schedule: Q04DX003 (ip), vehicle: saline with Tween-80",96 % of control
same,T/C,"dose: 100.0 mg/kg/injection, schedule: Q04DX003 (ip), vehicle: saline with Tween-80",101 % of control
same,T/C,[10],109 % of control
same,T/C,[11],111 % of control
CC(C)[C@H](C)C(=O)C1OCOC(C2CC(=O)NC(=O)C2)[C@@H]1O (some centres not stated),T/C,"dose: 0.01 mg/kg/injection, schedule: Q01DX009 (ip), vehicle: distilled water + alcohol",102 % of control
same,T/C,"dose: 0.03 mg/kg/injection, schedule: Q01DX009 (ip), vehicle: distilled water + alcohol",109 % of control
same,T/C,"dose: 0.06 mg/kg/injection, schedule: Q01DX009 (ip), vehicle: distilled water + alcohol",109 % of control
same,T/C,"dose: 0.12 mg/kg/injection, schedule: Q01DX009 (ip), vehicle: distilled water + alcohol",100 % of control
c1ccc(P2(c3ccccc3)=NSN=S=N2)cc1,T/C,[7],107 % of control
same,T/C,[8],116 % of control
same,T/C,[9],108 % of control
CC1OC(Oc2c(-c3ccc(O)c(O)c3O)oc3cc(O)ccc3c2=O)C(O)C(O)C1O (configuration not stated),T/C,[12],102 % of control
same,T/C,[13],98 % of control
same,T/C,[14],99 % of control
C/C(N)=C/C(=O)c1ccccc1,T/C,"dose: 100.0 mg/kg/injection, schedule: Q04DX003 (ip), vehicle: saline",102 % of control
same,T/C,"dose: 200.0 mg/kg/injection, schedule: Q04DX003 (ip), vehicle: saline",100 % of control
same,T/C,"dose: 400.0 mg/kg/injection, schedule: Q04DX003 (ip), vehicle: saline",105 % of control
C=C1C2CC[C@@H]3C45C=NC[C@@](C)(CCC4)[C@@H]5CCC3(C2)[C@@H]1OC(C)=O,T/C,"dose: 4.0 mg/kg/injection, schedule: Q01DX009 (ip), vehicle: Klucel (hydroxypropylcellulose) (HPC)",94 % of control
same,T/C,"dose: 8.0 mg/kg/injection, schedule: Q01DX009 (ip), vehicle: Klucel (hydroxypropylcellulose) (HPC)",94 % of control
same,T/C,"dose: 16.0 mg/kg/injection, schedule: Q01DX009 (ip), vehicle: Klucel (hydroxypropylcellulose) (HPC)",95 % of control
same,T/C,"dose: 32.0 mg/kg/injection, schedule: Q01DX009 (ip), vehicle: Klucel (hydroxypropylcellulose) (HPC)",96 % of control
OCC(CO)(CO)NCCCNC(CO)(CO)CO,T/C,"dose: 60.0 mg/kg/injection, schedule: Q01DX005 (ip), vehicle: saline",98 % of control
same,T/C,"dose: 120.0 mg/kg/injection, schedule: Q01DX005 (ip), vehicle: saline",101 % of control
same,T/C,"dose: 240.0 mg/kg/injection, schedule: Q01DX005 (ip), vehicle: saline",97 % of control
CCCCCCC(=O)/C=C/c1cccc(OCc2cccc(Cl)c2)c1,T/C,"dose: 50.0 mg/kg/injection, schedule: Q01DX005 (ip), vehicle: saline + Tween-80 + alcohol",96 % of control
same,T/C,"dose: 100.0 mg/kg/injection, schedule: Q01DX005 (ip), vehicle: saline + Tween-80 + alcohol",91 % of control
same,T/C,"dose: 200.0 mg/kg/injection, schedule: Q01DX005 (ip), vehicle: saline + Tween-80 + alcohol",96 % of control
O=S(=O)(c1ccccc1)N(Cl)Cl,T/C,"dose: 6.25 mg/kg/injection, schedule: Q01DX009 (ip), vehicle: saline with Tween-80",102 % of control and 104 % of control and 123 % of control
same,T/C,"dose: 12.5 mg/kg/injection, schedule: Q01DX009 (ip), vehicle: saline with Tween-80",104 % of control and 120 % of control and 93 % of control
same,T/C,"dose: 50.0 mg/kg/injection, schedule: Q01DX009 (ip), vehicle: saline with Tween-80",111 % of control
CP1(=O)CCC23CCCCC21O3 (configuration not stated),T/C,[4],104 % of control
same,T/C,[5],111 % of control
same,T/C,[6],95 % of control
CCOC(=O)c1ccccc1-n1nnc(C#N)c1N,T/C,[1],105 % of control
same,T/C,[2],115 % of control
CC(=O)OCC1OC(Nc2[nH]c(=O)n(C)c(=O)c2C=O)C(OC(C)=O)C(OC(C)=O)C1OC(C)=O (configuration not stated),T/C,[12],105 % of control
same,T/C,[13],109 % of control
same,T/C,[14],103 % of control
COc1cc(/C=N\NC(=O)c2cccc(Cl)c2)ccc1N(CCCl)CCCl,T/C,[10],163 % of control
same,T/C,"dose: 264.0 mg/kg/injection, schedule: Q04DX003 (ip), vehicle: saline with Tween-80",154 % of control
same,T/C,[11],172 % of control and 195 % of control
same,T/C,"dose: 600.0 mg/kg/injection, schedule: Q04DX003 (ip), vehicle: saline with Tween-80",154 % of control
O=C1OC2=C(CCCc3ccccc32)C(N(c2ccccc2)c2ccccc2)C1(Cl)Cl (configuration not stated),T/C,"dose: 50.0 mg/kg/injection, schedule: Q01DX009 (ip), vehicle: Klucel (hydroxypropylcellulose) (HPC)",96 % of control
same,T/C,"dose: 100.0 mg/kg/injection, schedule: Q01DX009 (ip), vehicle: Klucel (hydroxypropylcellulose) (HPC)",88 % of control
same,T/C,"dose: 200.0 mg/kg/injection, schedule: Q01DX009 (ip), vehicle: Klucel (hydroxypropylcellulose) (HPC)",89 % of control
COC(=O)c1cc(C)c(NC(C)=O)cc1C,T/C,"dose: 12.5 mg/kg/injection, schedule: Q01DX009 (ip), vehicle: distilled water + Tween-80",100 % of control
same,T/C,"dose: 25.0 mg/kg/injection, schedule: Q01DX009 (ip), vehicle: distilled water + Tween-80",98 % of control
same,T/C,"dose: 50.0 mg/kg/injection, schedule: Q01DX009 (ip), vehicle: distilled water + Tween-80",90 % of control
same,T/C,"dose: 100.0 mg/kg/injection, schedule: Q01DX009 (ip), vehicle: distilled water + Tween-80",98 % of control
same,T/C,"dose: 200.0 mg/kg/injection, schedule: Q01DX009 (ip), vehicle: distilled water + Tween-80",89 % of control
N#Cc1c(-c2cccn(-c3ccccc3)c2=O)cc(-c2ccccc2)[nH]c1=O,T/C,[1],88 % of control
same,T/C,[2],89 % of control
same,T/C,[3],110 % of control
O=C1CSC(c2ccc(Cl)cc2)N1c1nncs1 (configuration not stated),T/C,[12],101 % of control
same,T/C,[13],102 % of control
same,T/C,[14],108 % of control
CN1C(=O)C2CC(=O)N(Cc3ccccc3)C(=O)C2C1=O (configuration not stated),T/C,[7],96 % of control
same,T/C,[8],87 % of control
same,T/C,[9],87 % of control
CC(=O)c1cccc2cccc([N+](=O)[O-])c12,T/C,"dose: 100.0 mg/kg/injection, schedule: Q01DX009 (ip), vehicle: saline with Tween-80",104 % of control
same,T/C,"dose: 200.0 mg/kg/injection, schedule: Q01DX009 (ip), vehicle: saline with Tween-80",90 % of control
same,T/C,"dose: 400.0 mg/kg/injection, schedule: Q01DX009 (ip), vehicle: saline with Tween-80",104 % of control
CCCC(O)CCC(O)=C1C(=O)CCC1=O (configuration not stated),T/C,"dose: 50.0 mg/kg/injection, schedule: Q01DX005 (ip), vehicle: saline",107 % of control
same,T/C,"dose: 100.0 mg/kg/injection, schedule: Q01DX005 (ip), vehicle: saline",107 % of control
same,T/C,"dose: 200.0 mg/kg/injection, schedule: Q01DX005 (ip), vehicle: saline",107 % of control
